Each block holds one compound with its values, some of them ahead of it.
How the values were obtained:
[1] = tested on: Diabrotica balteata (corn root worm); assay: Example B4: activity against Diabrotica balteata, larvae L2 on maize sprouts, feeding/contact, preventative; assay type: in vivo; conditions: 120 h, 5 days incubation, read-out: activity (larval mortality, growth regulation)
Procedure: Activity Against Diabrotica Balteata (Corn Root Worm)
(Larvae L2 on Maize Sprouts, Feeding/Contact, Preventative)
Maize sprouts, placed on an agar layer in 24 well micro titer plates were treated with test solutions by spraying. After drying, the MTPs were infested with L2 larvae (6-10 per well). After an incubation period of 5 days, samples were checked for larval mortality and growth regulation.

[2] = tested on: Myzus persicae (green peach aphid); assay: Example B5: activity against Myzus persicae, feeding/residual contact, preventive, mixed population (sunflower leaf discs); assay type: in vivo; conditions: foliar, 144 h, mixed ages, 6 DAT, read-out: activity (mortality, special effects)
Procedure: (§1) Activity Against Myzus persicae (Green Peach Aphid)
(Feeding/Residual Contact Activity, Preventive), Mixed Population
Sunflower leaf discs were placed on agar in a 24-well microtiter plate and sprayed with test solutions. After drying, the leaf discs were infested with an aphid population of mixed ages. After an incubation period of 6 DAT, samples were checked for mortality and special effects (e.g. phytotoxicity).

[3] = tested on: Myzus persicae (green peach aphid); assay: Example B6: activity against Myzus persicae, feeding activity sachet test, mixed population; assay type: in vivo; conditions: 120 h, 5 days after infestation
Excerpt: as §1
(Feeding Activity Sachet Test), Mixed Population
Test compounds were applied by pipette into 24 well plates and mixed with Sucrose solution. The plates were closed with a stretched Parafilm. A plastic stencil with 24 holes is placed onto the plate and infested pea seedlings were placed directly on the Parafilm. The infested plate is closed with a gel blotting paper and another plastic stencil and then turned upside down. 5 days after infestation the samples were checked on mortality. Application rate: 12.5 ppm.

[4] = tested on: Aedes aegypti (yellow fever mosquito); assay: Example B9: activity against Aedes aegypti, adult females on treated plates; assay type: in vivo; conditions: 200 ppm in ethanol; after 48 hours
Procedure: Activity Against Aedes aegypti (Yellow Fever Mosquito)
Test solutions, at an application rate of 200 ppm in ethanol, were applied to 12-well tissue culture plates. Once the deposits were dry, five, two to five days old adult female Aedes aegypti were added to each well, and sustained with a 10% sucrose solution in a cotton wool plug. Assessment of knockdown was made one hour after introduction, and mortality was assessed at 24 and 48 hours after introduction.

[5] = tested on: Myzus persicae (green peach aphid); assay: Example B7: activity against Myzus persicae, systemic/feeding activity, curative, mixed population (pea seedlings); assay type: in vivo; conditions: 144 h, roots in test solution, 6 days after introduction, read-out: activity (mortality, special effects on the plant)
Excerpt: as §1
(Systemic/Feeding Activity, Curative), Mixed Population
Roots of pea seedlings, infested with an aphid population of mixed ages, were placed directly in the test solutions. 6 days after introduction, samples were checked for mortality and special effects on the plant.

[6] = tested on: Spodoptera littoralis (Egyptian cotton leaf worm); assay: Example B1: activity against Spodoptera littoralis, larvicide, feeding/residual contact, preventive (cotton leaf discs); assay type: in vivo; conditions: foliar, 72 h, L1 larvae, 3 days after treatment, read-out: activity (mortality, repellent effect, feeding behaviour, growth regulation)
Excerpt: Activity Against Spodoptera littoralis (Egyptian Cotton Leaf Worm)
(§2) (Larvicide, Feeding/Residual Contact Activity, Preventive)
Cotton leaf discs were placed on agar in a 24-well microtiter plate and sprayed with test solutions. After drying, the leaf discs were infested with 5 L1 larvae. The samples were checked for mortality, repellent effect, feeding behaviour, and growth regulation 3 days after treatment (DAT).

[7] = tested on: Plutella xylostella (diamond back moth); assay: Example B3: activity against Plutella xylostella, larvicide, feeding/residual contact, preventive (artificial diet); assay type: in vivo; conditions: 120 h, L2 larvae, 5 days incubation, read-out: activity (larval mortality, antifeedant, growth regulation)
Procedure: Activity Against Plutella xylostella (Diamond Back Moth)
as §2
24-well microtiter plate (MTP) with artificial diet was treated with test solutions by pipetting. After drying, the MTPs were infested with L2 larvae (10-15 per well). After an incubation period of 5 days, samples were checked for larval mortality, antifeedant and growth regulation.

SMILES: CCSc1cccnc1C(=O)/N=c1\sc(C(F)(F)F)nn1C [P3, (N)-3-ethylsulfanyl-N-[3-methyl-5-(trifluoromethyl)-1,3,4-thiadiazol-2-ylidene]pyridine-2-carboxamide]
mortality at 400 ppm [1]: > 80%
mortality at 400 ppm [2]: > 80%
mortality at 12.5 ppm [3]: ≥ 80%
control of Aedes aegypti [4]: at least 80%

SMILES: CCS(=O)(=O)c1cccnc1C(=O)/N=c1\sc(C(F)(F)F)nn1C [P5, (N)-3-ethylsulfonyl-N-[3-methyl-5-(trifluoromethyl)-1,3,4-thiadiazol-2-ylidene]pyridine-2-carboxamide]
mortality at 400 ppm [2]: > 80%
mortality at 24 ppm [5]: ≥ 80%

melting point: 123 to 125 °C
SMILES: CCS(=O)(=O)c1cc(C(F)(F)F)cnc1C(=O)/N=c1\sc(C(F)(F)C(F)(F)F)nn1C

melting point: 195 to 197 °C
SMILES: CCS(=O)(=O)c1cc(C(F)(F)F)ccc1C(=O)/N=c1\sc(C(F)(F)F)nn1C

melting point: 163 to 165 °C
SMILES: CCS(=O)(=O)c1cc(C(F)(F)F)cnc1C(=O)/N=c1\scc(C(F)(F)F)n1C

SMILES: CCS(=O)(=O)c1cc(C(F)(F)F)cnc1C(=O)/N=c1\ccc(C(F)(F)F)nn1C [P9]
mortality at 400 ppm [2]: > 80%

melting point: 153 to 155 °C
SMILES: CCS(=O)(=O)c1cc(C(F)(F)F)cnc1C(=O)/N=c1\cc(C(F)(F)F)ccn1C

SMILES: CCSc1cc(C(F)(F)F)cnc1C(=O)/N=c1\sc(C(F)(F)F)nn1C [P4]
mortality at 400 ppm [6]: > 80%
mortality at 400 ppm [7]: > 80%
mortality at 400 ppm [1]: > 80%

melting point: 167 to 169 °C
SMILES: CCS(=O)(=O)c1cc(C(F)(F)F)cnc1C(=O)/N=c1\ccc(SC(F)(F)F)cn1C

SMILES: CCS(=O)(=O)c1cc(C(F)(F)F)cnc1C(=O)/N=c1\sc(C(F)(F)F)cn1C [P1, (N)-3-ethylsulfonyl-N-[3-methyl-5-(trifluoromethyl)thiazol-2-ylidene]-5-(trifluoromethyl)pyridine-2-carboxamide]
mortality at 400 ppm [6]: > 80%
mortality at 400 ppm [1]: > 80%

SMILES: CCS(=O)(=O)c1cc(C(F)(F)F)cnc1C(=O)/N=c1\sc(C(F)(F)F)nn1C [P6]
mortality at 400 ppm [6]: > 80%
mortality at 400 ppm [7]: > 80%
mortality at 400 ppm [1]: > 80%

Reference: US9701659B2, “Insecticidally active amide derivatives with sulfur-substituted phenyl or pyridine groups” (Syngenta Participations AG, priority 2014, dated 2017)
